Reference: patent US20140206681A1, “BTK INHIBITORS” (priority 2013, published 2014)

Experiments:
[1] = molecular target: T1, BTK enzyme (recombinant full-length BTK, hBTK) (Homo sapiens, UniProt Q06187); assay: BTK enzyme activity assay, LANCE TR-FRET; type: biochemical; settings: 50 pM hBTK, 2 μM biotin-A5-peptide, 25 μM ATP; 60 min compound & enzyme incubation; read-out: IC50 BTK activity value
T1 construct: recombinant protein from baculovirus-transfected Sf9 cells: full-length BTK, 6HIS-tag cleaved; 6HIS (cleaved yes); made in house; host or cells: baculovirus-transfected Sf9 cells
T1 sequence (Q06187 whole entry): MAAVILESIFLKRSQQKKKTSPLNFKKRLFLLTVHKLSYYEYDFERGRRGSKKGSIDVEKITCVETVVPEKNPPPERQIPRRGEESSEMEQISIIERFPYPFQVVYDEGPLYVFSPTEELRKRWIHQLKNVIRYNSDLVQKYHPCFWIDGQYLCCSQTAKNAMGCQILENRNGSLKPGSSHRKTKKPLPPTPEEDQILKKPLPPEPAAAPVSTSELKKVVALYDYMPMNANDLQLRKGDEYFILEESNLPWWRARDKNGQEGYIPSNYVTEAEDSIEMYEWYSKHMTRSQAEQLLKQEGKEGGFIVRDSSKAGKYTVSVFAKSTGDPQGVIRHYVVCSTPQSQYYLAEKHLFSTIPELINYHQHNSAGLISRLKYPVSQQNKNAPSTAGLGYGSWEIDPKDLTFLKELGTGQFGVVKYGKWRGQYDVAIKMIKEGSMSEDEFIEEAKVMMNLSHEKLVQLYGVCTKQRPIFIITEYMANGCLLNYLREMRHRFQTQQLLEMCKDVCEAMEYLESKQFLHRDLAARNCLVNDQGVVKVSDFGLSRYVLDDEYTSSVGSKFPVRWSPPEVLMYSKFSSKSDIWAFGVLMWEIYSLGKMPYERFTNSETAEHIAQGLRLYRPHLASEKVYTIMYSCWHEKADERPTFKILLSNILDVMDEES

[2] = test system: HeLa cells; assay: [3H]Adenosine uptake functional cellular assay; type: cell-based; settings: Homo sapiens, HeLa, accumulation of [3H]adenosine into HeLa cells; compound range 10 μM to […]; read-out: Adenosine uptake inhibition IC50
Summary of the method: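 Inhibition of adenosine uptake was measured in HeLa cells (ATCC CCL-2) by following accumulation of tritiated adenosine. Cells were kept overnight at 37° C. with 5% (v/v) CO2, then switched to 40 μL HBSS plus 5% (v/v) FBS. 20 μL of 500 nM [3H]adenosine was added, and uptake was counted on a Topcount NXT reader.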

Structure (SMILES)	IC50 [1] [nM]	IC50 [2] [nM]
Cc1cc(C(F)(F)F)cc(NC(=O)c2ccc(-c3nc([C@@H]4CC[C@H]5CCC(=O)N5C4)n4ccnc(N)c34)cc2)n1 [Example 120, 4-{8-amino-3-[(6R,8aS)-3-oxooctahydroindolizin-6-yl]imidazo[1,5-a]pyrazin-1-yl}-N-[6-methyl-4-(trifluoromethyl)pyridin-2-yl]benzamide]	4.8	117
N#Cc1cc(C(=O)Nc2cc(C(F)(F)F)ccn2)ccc1-c1nc([C@@H]2CC[C@H]3CCC(=O)N3C2)n2ccnc(N)c12 [Example 123, 4-{8-amino-3-[(6R,8aS)-3-oxooctahydroindolizin-6-yl]imidazo[1,5-a]pyrazin-1-yl}-3-cyano-N-[4-(trifluoromethyl)pyridin-2-yl]benzamide]	6.3	719
NC(=O)c1cc(C(=O)Nc2cc(C(F)(F)F)ccn2)ccc1-c1nc([C@@H]2CC[C@H]3CCC(=O)N3C2)n2ccnc(N)c12 [Example 124, 4-{8-amino-3-[(6R,8aS)-3-oxooctahydroindolizin-6-yl]imidazo[1,5-a]pyrazin-1-yl}-N~1~-[4-(trifluoromethyl)pyridin-2-yl]benzene-1,3-dicarboxamide]	347	≥ 10000
CC(C)c1cc(C(F)(F)F)cc(NC(=O)c2ccc(-c3nc([C@@H]4CC[C@H]5CCC(=O)N5C4)n4ccnc(N)c34)cc2)n1 [Example 125, 4-{8-amino-3-[(6R,8aS)-3-oxooctahydroindolizin-6-yl]imidazo[1,5-a]pyrazin-1-yl}-N-[6-(1-methylethyl)-4-(trifluoromethyl)pyridin-2-yl]benzamide]	278	645
Nc1nccn2c([C@@H]3CC[C@H]4CCC(=O)N4C3)nc(-c3ccc(C(=O)Nc4cc(C(F)(F)F)ccn4)cc3C(=O)O)c12 [Example 127, 2-{8-amino-3-[(6R,8aS)-3-oxooctahydroindolizin-6-yl]imidazo[1,5-a]pyrazin-1-yl}-5-{[4-(trifluoromethyl)pyridin-2-yl]carbamoyl}benzoic acid]	83.5	5160
CCOc1cc(C(=O)Nc2cc(C(F)(F)F)ccn2)ccc1-c1nc([C@@H]2CC[C@H]3CCC(=O)N3C2)n2c(Cl)cnc(N)c12 [Example 128, 4-{8-amino-5-chloro-3-[(6R,8aS)-3-oxooctahydroindolizin-6-yl]imidazo[1,5-a]pyrazin-1-yl}-3-ethoxy-N-[4-(trifluoromethyl)pyridin-2-yl]benzamide]	0.27	1160
COc1cccc(NC(=O)c2ccc(-c3nc([C@@H]4CC[C@H]5CCC(=O)N5C4)n4ccnc(N)c34)cc2)n1 [Example 129, 4-{8-amino-3-[(6R,8aS)-3-oxooctahydroindolizin-6-yl]imidazo[1,5-a]pyrazin-1-yl}-N-(6-methoxypyridin-2-yl)benzamide]	81.2	39.3
COc1cc(C(=O)Nc2cc(C(F)(F)F)ccn2)c(F)cc1-c1nc([C@@H]2CC[C@H]3CCC(=O)N3C2)n2ccnc(N)c12 [Example 130, 4-{8-amino-3-[(6R,8aS)-3-oxooctahydroindolizin-6-yl]imidazo[1,5-a]pyrazin-1-yl}-2-fluoro-5-methoxy-N-[4-(trifluoromethyl)pyridin-2-yl]benzamide]	2.5	728
CCOc1cc(C(=O)Nc2cc(C(F)(F)F)n(C)n2)ccc1-c1nc([C@@H]2CC[C@H]3CCC(=O)N3C2)n2ccnc(N)c12 [Example 131, 4-{8-amino-3-[(6R,8aS)-3-oxooctahydroindolizin-6-yl]imidazo[1,5-a]pyrazin-1-yl}-3-ethoxy-N-[1-methyl-5-(trifluoromethyl)-1H-pyrazol-3-yl]benzamide]	0.74	2780
COc1cc(C(=O)Nc2cc(C(F)(F)F)ccn2)c(F)cc1-c1nc([C@@H]2CC[C@H]3CCC(=O)N3C2)n2c(Cl)cnc(N)c12 [Example 132, 4-{8-amino-5-chloro-3-[(6R,8aS)-3-oxooctahydroindolizin-6-yl]imidazo[1,5-a]pyrazin-1-yl}-2-fluoro-5-methoxy-N-[4-(trifluoromethyl)pyridin-2-yl]benzamide]	1.2	1490
COc1cc(C(=O)Nc2cc(C(F)(F)F)ccn2)cc(F)c1-c1nc([C@@H]2CC[C@H]3CCC(=O)N3C2)n2ccnc(N)c12 [Example 134, 4-{8-amino-3-[(6R,8aS)-3-oxooctahydroindolizin-6-yl]imidazo[1,5-a]pyrazin-1-yl}-3-fluoro-5-methoxy-N-[4-(trifluoromethyl)pyridin-2-yl]benzamide]	0.28	1600
CCOc1cc(C(=O)Nc2cc(C(F)(F)F)n(C)n2)ccc1-c1nc([C@@H]2CC[C@H]3CCC(=O)N3C2)n2c(Cl)cnc(N)c12 [Example 135, 4-{8-amino-5-chloro-3-[(6R,8aS)-3-oxooctahydroindolizin-6-yl]imidazo[1,5-a]pyrazin-1-yl}-3-ethoxy-N-[1-methyl-5-(trifluoromethyl)-1H-pyrazol-3-yl]benzamide]	0.23	2150
CCOc1cc(C(=O)Nc2cc(C3CC3)ccn2)c(F)cc1-c1nc([C@@H]2CC[C@H]3CCC(=O)N3C2)n2c(Cl)cnc(N)c12 [Example 136, 4-{8-amino-5-chloro-3-[(6R,8aS)-3-oxooctahydroindolizin-6-yl]imidazo[1,5-a]pyrazin-1-yl}-N-(4-cyclopropylpyridin-2-yl)-5-ethoxy-2-fluorobenzamide]	0.78	1430
CCOc1cc(C(=O)Nc2cc(C3CC3)ccn2)c(F)cc1-c1nc([C@@H]2CC[C@H]3CCC(=O)N3C2)n2ccnc(N)c12 [Example 137, 4-{8-amino-3-[(6R,8aS)-3-oxooctahydroindolizin-6-yl]imidazo[1,5-a]pyrazin-1-yl}-N-(4-cyclopropylpyridin-2-yl)-5-ethoxy-2-fluorobenzamide]	2	1200
Nc1nccn2c([C@@H]3CC[C@H]4CCC(=O)N4C3)nc(-c3ccc(C(=O)Nc4cc(C(F)(F)F)ccn4)cc3OC3CCCCC3)c12 [Example 138, 4-{8-amino-3-[(6R,8aS)-3-oxooctahydroindolizin-6-yl]imidazo[1,5-a]pyrazin-1-yl}-3-(cyclohexyloxy)-N-[4-(trifluoromethyl)pyridin-2-yl]benzamide]	135	1380
CC(C)Oc1cc(C(=O)Nc2cc(C(F)(F)F)ccn2)ccc1-c1nc([C@@H]2CC[C@H]3CCC(=O)N3C2)n2ccnc(N)c12 [Example 139, 4-{8-amino-3-[(6R,8aS)-3-oxooctahydroindolizin-6-yl]imidazo[1,5-a]pyrazin-1-yl}-3-(1-methylethoxy)-N-[4-(trifluoromethyl)pyridin-2-yl]benzamide]	5.7	1280
Nc1nccn2c([C@@H]3CC[C@H]4CCC(=O)N4C3)nc(-c3ccc(C(=O)Nc4cc(C(F)(F)F)ccn4)cc3OC3CCC3)c12 [Example 140, 4-{8-amino-3-[(6R,8aS)-3-oxooctahydroindolizin-6-yl]imidazo[1,5-a]pyrazin-1-yl}-3-(cyclobutyloxy)-N-[4-(trifluoromethyl)pyridin-2-yl]benzamide]	4.6	756
Nc1nccn2c([C@@H]3CC[C@H]4CCC(=O)N4C3)nc(-c3ccc(C(=O)Nc4cc(C(F)(F)F)ccn4)cc3OC3CCCC3)c12 [Example 141, 4-{8-amino-3-[(6R,8aS)-3-oxooctahydroindolizin-6-yl]imidazo[1,5-a]pyrazin-1-yl}-3-(cyclopentyloxy)-N-[4-(trifluoromethyl)pyridin-2-yl]benzamide]	23.7	824
CC(C)(C)COc1cc(C(=O)Nc2cc(C(F)(F)F)ccn2)ccc1-c1nc([C@@H]2CC[C@H]3CCC(=O)N3C2)n2ccnc(N)c12 [Example 142, 4-{8-amino-3-[(6R,8aS)-3-oxooctahydroindolizin-6-yl]imidazo[1,5-a]pyrazin-1-yl}-3-(2,2-dimethylpropoxy)-N-[4-(trifluoromethyl)pyridin-2-yl]benzamide]	17.5	1190
Cn1nc(NC(=O)c2ccc(-c3nc([C@@H]4CC[C@H]5CCC(=O)N5C4)n4c(Cl)cnc(N)c34)c(OC3CC3)c2)cc1C(F)(F)F [Example 145, 4-{8-amino-5-chloro-3-[(6R,8aS)-3-oxooctahydroindolizin-6-yl]imidazo[1,5-a]pyrazin-1-yl}-3-(cyclopropyloxy)-N-[1-methyl-5-(trifluoromethyl)-1H-pyrazol-3-yl]benzamide]	0.44	2420
Cn1nc(NC(=O)c2ccc(-c3nc([C@@H]4CC[C@H]5CCC(=O)N5C4)n4ccnc(N)c34)c(OC3CC3)c2)cc1C(F)(F)F [Example 146, 4-{8-amino-3-[(6R,8aS)-3-oxooctahydroindolizin-6-yl]imidazo[1,5-a]pyrazin-1-yl}-3-(cyclopropyloxy)-N-[1-methyl-5-(trifluoromethyl)-1H-pyrazol-3-yl]benzamide]	0.59	5000
Nc1ncc(Cl)n2c([C@@H]3CC[C@H]4CCC(=O)N4C3)nc(-c3ccc(C(=O)Nc4cc(C5CC5)ccn4)cc3OC3CC3)c12 [Example 147, 4-{8-amino-5-chloro-3-[(6R,8aS)-3-oxooctahydroindolizin-6-yl]imidazo[1,5-a]pyrazin-1-yl}-3-(cyclopropyloxy)-N-(4-cyclopropylpyridin-2-yl)benzamide]	0.75	959
Nc1nccn2c([C@@H]3CC[C@H]4CCC(=O)N4C3)nc(-c3ccc(C(=O)Nc4cc(C5CC5)ccn4)cc3OC3CC3)c12 [Example 148, 4-{8-amino-3-[(6R,8aS)-3-oxooctahydroindolizin-6-yl]imidazo[1,5-a]pyrazin-1-yl}-3-(cyclopropyloxy)-N-(4-cyclopropylpyridin-2-yl)benzamide]	1.4	1080
